Experimental data: the OligoGym collection
“And” between values parts separate entries of the source, which are not always exact repeats. Identical values can stand only once. After the bases stand the sugars from the 5' end (letter, count) and the backbone: PS all phosphorothioate, else s phosphorothioate and o phosphodiester by linkage. Methylation of C is not given here. e = 2'-O-(2-methoxyethyl) (MOE); k = constrained ethyl (cEt); d = 2'-deoxy (DNA); m = 2'-O-methyl

Target: HSD17B13
Settings: ASO, HepaRG

Row | Sequence | target mRNA inhibition (1 µM) | other results
1 | TAGCTTTTGTCCACCT (sugars kkdddddddddkekek, PS) | 71% | target mRNA inhibition (0.02 µM): 0%; target mRNA inhibition (0.078 µM): 3%; target mRNA inhibition (0.313 µM): 29%; target mRNA inhibition (1.25 µM): 53%; target mRNA inhibition (5 µM): 48%
2 | TAGCUGTGCACTCATT (sugars k3 d1 m1 d8 k3, PS) | 60% | –
3 | TAGCUTTTGTCCACCT (sugars k3 d1 m1 d8 k3, PS) | 67% and 50% | target mRNA inhibition (0.02 µM): 8%; target mRNA inhibition (0.078 µM): 9%; target mRNA inhibition (0.313 µM): 26%; target mRNA inhibition (1.25 µM): 54%; target mRNA inhibition (5 µM): 78%
4 | TAGGAAGTGATCCATA (sugars k3 d10 k3, PS) | 30% | –
5 | TAGGATGATGTTCATG (sugars k3 d10 k3, PS) | 72% | –
6 | TAGGATGTTGACCTCA (sugars k3 d10 k3, PS) | 19% | –
7 | TAGGATTAATTCCCTT (sugars k3 d10 k3, PS) | 0% | –
8 | TAGTATAGTTATCTTC (sugars k3 d1 m1 d8 k3, PS) | 13% | –
9 | TAGTATTTGGGTGTTC (sugars k3 d10 k3, PS) | 27% | –
10 | TAGTCCTAGGGAGGAG (sugars k3 d10 k3, PS) | 68% | –
11 | TAGTCTTCAGCAAAGT (sugars kkdddddddddkekek, PS) | 35% | –
12 | TAGTCTTGATGTAGTG (sugars k3 d1 m1 d8 k3, PS) | 56% | –
13 | TAGTGTAAGCTGAGAG (sugars kkdddddddddkekek, PS) | 68% | target mRNA inhibition (0.02 µM): 24%; target mRNA inhibition (0.078 µM): 25%; target mRNA inhibition (0.313 µM): 37%; target mRNA inhibition (1.25 µM): 51%; target mRNA inhibition (5 µM): 81%
14 | TATACTAGGATTAGAA (sugars k3 d10 k3, PS) | 2% | –
15 | TATACTGTCCCAGCAT (sugars k3 d10 k3, PS) | 40% | –
16 | TATAGACTGGGTAGGA (sugars k3 d1 m1 d8 k3, PS) | 30% | –
17 | TATAGAGGGTCCACTT (sugars k3 d10 k3, PS) | 17% | –
18 | TATAGTTATCTTCTCA (sugars kkdddddddddkekek, PS) | 45% | –
19 | TATATAACATGGCTGG (sugars k3 d10 k3, PS) | 8% | –
20 | TATATGAGGTCTGTAT (sugars k3 d10 k3, PS) | 42% | –
21 | TATCAATGCCTTAGCC (sugars k3 d10 k3, PS) | 15% | –
22 | TATCAGAAACTTATAC (sugars k3 d10 k3, PS) | 0% | –
23 | TATCATACCACATACC (sugars k3 d10 k3, PS) | 24% | –
24 | TATCTTATAAGACTAT (sugars k3 d10 k3, PS) | 43% | –

Row | Sequence | target mRNA inhibition (1 µM) | other results
25 | TATGAGTAAAGATCTA (sugars k3 d10 k3, PS) | 10% | –
26 | TATGUAATAGCCAGTA (sugars k3 d1 m1 d8 k3, PS) | 43% | –
27 | TATTAGAAGTCAGCCC (sugars k3 d1 m1 d8 k3, PS) | 29% | –
28 | TATTAGAAGTCAGCCC (sugars k3 d10 k3, PS) | 27% | –
29 | TATTAGAAGTCAGCCC (sugars kkdddddddddkekek, PS) | 36% | –
30 | TATTATGTGATTGAGT (sugars k3 d1 m1 d8 k3, PS) | 28% | –
31 | TATTCCCAACGCAACA (sugars k3 d10 k3, PS) | 62% | –
32 | TATTCTGTGGCATGGC (sugars k3 d10 k3, PS) | 71% | –
33 | TATTGGTAAGTATTCC (sugars kkdddddddddkekek, PS) | 36% | –
34 | TATTTCGCTACTGTAG (sugars k3 d10 k3, PS) | 48% | –
35 | TCAAATGAGGCGGCAC (sugars k3 d10 k3, PS) | 46% | –
36 | TCAAATTAAGATGTCC (sugars k3 d10 k3, PS) | 6% | –
37 | TCAACCTGCACACCAT (sugars k3 d10 k3, PS) | 72% | target mRNA inhibition (0.02 µM): 14%; target mRNA inhibition (0.078 µM): 32%; target mRNA inhibition (0.313 µM): 47%; target mRNA inhibition (1.25 µM): 71%; target mRNA inhibition (5 µM): 84%
38 | TCAACTAAACATGACA (sugars k3 d10 k3, PS) | 77% | target mRNA inhibition (0.02 µM): 0%; target mRNA inhibition (0.078 µM): 0%; target mRNA inhibition (0.313 µM): 42%; target mRNA inhibition (1.25 µM): 69%; target mRNA inhibition (5 µM): 89%
39 | TCAAGACATTCTAGCC (sugars k3 d10 k3, PS) | 79% | –
40 | TCAATTTATCATACCA (sugars k3 d10 k3, PS) | 26% | –
41 | TCACATATGTGAAGAG (sugars k3 d10 k3, PS) | 27% | –
42 | TCACCAACGACTCCAA (sugars k3 d10 k3, PS) | 19% | –
43 | TCAGATCCCGTTCTTG (sugars k3 d10 k3, PS) | 59% | –
44 | TCATAAGTAGTCTGCC (sugars k3 d10 k3, PS) | 62% | –
45 | TCATAGTGGACTTCAT (sugars k3 d1 m1 d8 k3, PS) | 44% | –
46 | TCATAGTGGACTTCAT (sugars k3 d9 k3 e1, PS) | 54% | –
47 | TCATTAAGCTTAGTAT (sugars k3 d10 k3, PS) | 31% | –
48 | TCCAAAAGTGTCCTCG (sugars k3 d10 k3, PS) | 31% | –

Row | Sequence | target mRNA inhibition (1 µM) | other results
49 | TCCAAGGAGTGCATCT (sugars k3 d10 k3, PS) | 46% | –
50 | TCCAATTTAAATCAGG (sugars k3 d10 k3, PS) | 61% | –
51 | TCCAGTAAAAAATTGG (sugars k3 d10 k3, PS) | 12% | –
52 | TCCAGTAGGTGTGTTT (sugars k3 d10 k3, PS) | 47% | –
53 | TCCATAATAATAGCTC (sugars kkdddddddddkekek, PS) | 41% | –
54 | TCCATCTATCAGACTT (sugars k3 d10 k3, PS) | 42% | –
55 | TCCATGCAAAAGCATT (sugars k3 d10 k3, PS) | 62% | –
56 | TCCATTGAATCTTCAA (sugars k3 d10 k3, PS) | 57% | –
57 | TCCAUAATAATAGCTC (sugars k3 d1 m1 d8 k3, PS) | 58% | –
58 | TCCCAACCCAAGCTAC (sugars k3 d10 k3, PS) | 8% | –
59 | TCCCAAGGCCTGAAGT (sugars k3 d10 k3, PS) | 43% | –
60 | TCCGGTAAGAATTTCG (sugars k3 d10 k3, PS) | 63% | –
61 | TCCTGTGTTAGCTTTA (sugars k3 d9 k3 e1, PS) | 75% and 50% | target mRNA inhibition (0.02 µM): 0%; target mRNA inhibition (0.078 µM): 0%; target mRNA inhibition (0.313 µM): 34%; target mRNA inhibition (1.25 µM): 50%; target mRNA inhibition (5 µM): 81%
62 | TCGGCACTCAGCTGCA (sugars k3 d10 k3, PS) | 52% | –
63 | TCGGCTGGATATACTG (sugars k3 d10 k3, PS) | 23% | –
64 | TCGGGAAGTTTAGACA (sugars k3 d10 k3, PS) | 43% | –
65 | TCTAAACATCTCTGGG (sugars k3 d1 m1 d8 k3, PS) | 36% | –
66 | TCTAAACATCTCTGGG (sugars k3 d10 k3, PS) | 40% | –
67 | TCTAAACATCTCTGGG (sugars kkdddddddddkekek, PS) | 21% | –
68 | TCTAAACTAGTGGTAA (sugars k3 d10 k3, PS) | 24% | –
69 | TCTAAGTTAGCCCCCA (sugars k3 d1 m1 d8 k3, PS) | 7% | –
70 | TCTACCACATACGCAT (sugars k3 d10 k3, PS) | 55% | –
71 | TCTATTAGTTGGCCTG (sugars k3 d10 k3, PS) | 26% | –
72 | TCTATTGATTGGCTTA (sugars k3 d10 k3, PS) | 39% | –

Row | Sequence | target mRNA inhibition (1 µM) | other results
73 | TCTCCATCATCGATGG (sugars k3 d10 k3, PS) | 24% | –
74 | TCTCTTAGCTGTGCAC (sugars k3 d10 k3, PS) | 79% | target mRNA inhibition (0.02 µM): 15%; target mRNA inhibition (0.078 µM): 30%; target mRNA inhibition (0.313 µM): 52%; target mRNA inhibition (1.25 µM): 74%; target mRNA inhibition (5 µM): 89%
75 | TCTCUTGACAATGGTT (sugars k3 d1 m1 d8 k3, PS) | 62% | –
76 | TCTGGGACCAAGGATA (sugars k3 d9 k3 e1, PS) | 57% | –
77 | TCTTAAACCTTCCCTG (sugars kkdddddddddkekek, PS) | 24% | –
78 | TCTTAAGATACCCAGG (sugars k3 d10 k3, PS) | 58% | –
79 | TCTTAAGGATCATTGC (sugars k3 d10 k3, PS) | 0% | –
80 | TCTTAGCTGTGCACTC (sugars k3 d1 m1 d8 k3, PS) | 71% | –
81 | TCTTATTGGTAAGTAT (sugars k3 d10 k3, PS) | 25% | –
82 | TCTTGACAATGGTTGA (sugars kkdddddddddkekek, PS) | 40% | –
83 | TCTTGGGTCCATTGTT (sugars k3 d10 k3, PS) | 60% | –
84 | TCTTTTTATAGACTGG (sugars k3 d10 k3, PS) | 82% | target mRNA inhibition (0.02 µM): 0%; target mRNA inhibition (0.078 µM): 0%; target mRNA inhibition (0.313 µM): 35%; target mRNA inhibition (1.25 µM): 55%; target mRNA inhibition (5 µM): 90%
85 | TGAACAGTCTTAAACC (sugars k3 d1 m1 d8 k3, PS) | 57% | –
86 | TGAACCCAGTATTCAC (sugars k3 d10 k3, PS) | 10% | –
87 | TGAAGTTAGTATAGTT (sugars k3 d9 k3 e1, PS) | 70% | –
88 | TGAATAGCAAGCCAAC (sugars k3 d10 k3, PS) | 4% | –
89 | TGACAACAGAGTTCTG (sugars k3 d10 k3, PS) | 11% | –
90 | TGACAATGGTTGATAG (sugars k3 d10 k3, PS) | 16% | –
91 | TGACAATGGTTGCCAC (sugars k3 d1 m1 d8 k3, PS) | 55% | –
92 | TGACAATGGTTGCCAC (sugars k3 d9 k3 e1, PS) | 45% | –
93 | TGAGAAGATCGGCTGG (sugars k3 d10 k3, PS) | 37% | –
94 | TGAGAGAACTTATACA (sugars k3 d10 k3, PS) | 32% | –
95 | TGAGGTAAGGAATCCC (sugars k3 d10 k3, PS) | 2% | –
